# Tests used:
# LCMV = type: in vivo, C57BL/6 mice; conditions: 2×10^4 pfu LCMV, serotonin 5 mg/mouse/day
# [1] = Serotonin treatment without infection, effect on liver
smiles,measurement,setting,value
NCCc1c[nH]c2ccc(O)cc12 [serotonin],time of maximum ALT level after infection,LCMV,10 days
same,replicating virus in liver (viral titers),"LCMV; eight days after infection, vehicle treated mice cleared LCMV by day 8",high levels of replicating virus
same,ALT levels in the serum,LCMV; maximum at day 10 after infection,more than 1000 U/I
same,effect on the liver without infection,[1],harmless to the liver
